{"source": "paper PMC2423925", "about": "“Pharmacokinetics of Octreotide in Patients With Cirrhosis and Portal Hypertension; Relationship Between the Plasma Levels of the Analogue and the Magnitude and Duration of the Reduction in Corrected Wedged Hepatic Venous Pressure” (HPB Surgery, 1998)", "key": {"[1]": {"details": "normal healthy volunteers; cited from earlier work"}, "[2]": {"test": "Pharmacokinetics of octreotide after subcutaneous injection (plasma radioimmunoassay);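 on all read-outs here: cirrhotic patients on twice-daily subcutaneous dosing for prevention of recurrent variceal bleeding, sampled four weeks into treatment, octreotide measured in plasma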", "details": "for AUC: AUC 2-12 h; for Cmax: 50 μg, Plasma octreotide levels, Peak", "text": "Furthermore, we also studied the relationship between the mag- nitude and duration of response of octreotide on corrected wedged hepatic venous pressure (WHVP) and the circulatinglevels ofthe analogue after intravenous administration. Subcutaneous Administration of Octreotide Six patients (4 males and 2 females), receiving 50tg octreotide s.c. twice daily to prevent recurrent varieceal hemorrhage were studied 4 weeks after commencing treatment with the analogue. These patients were participating in a randomised controlled trial and had already undergone a baseline measurement of corrected wedged hepatic venous pressure (WHVP) prior to being commenced on octreotide (50 tg.sc.bd). […] One patient had severe (Child's C), 2 moderate (Child's B) and 3 mild (Child's A) liver dys- function. Following an overnight fast, blood samples were removed immediately prior to a subcutaneous injection of 50tg octreotide and then at 2 hourly intervals for the following 12 h. The blood samples were collected in hepari- nised bottles containing Trasylol, centrifuged at 0C, the plasma snap frozen and stored at -20C for subsequent analysis of the octreo- tide levels. […] Thirteen patient with cirrhosis and portal hy- pertension admitted for a thorough investigation of the etiology and severity of their liver disease underwent measurements of their corrected wedged hepatic venous pressure (WHVP). […] A 7F occlusion ballon Sidewinder catheter (Cordis Corporation, Miami, USA) was guided into a hepatic vein under fluoroscopic control. […] The right femoral artery was cannu- lated with a 7F Cordis cannula via a 8F Cordis introducer."}, "[3]": {"test": "Plasma octreotide level one hour after intravenous administration (radioimmunoassay)", "type": "in vivo, human", "details": "50 μg octreotide IV bolus, 13 patients with cirrhosis and portal hypertension", "text": "Furthermore, we also studied the relationship between the mag- nitude and duration of response of octreotide on corrected wedged hepatic venous pressure (WHVP) and the circulatinglevels ofthe analogue after intravenous administration. Subcutaneous Administration of Octreotide Six patients (4 males and 2 females), receiving 50tg octreotide s.c. twice daily to prevent recurrent varieceal hemorrhage were studied 4 weeks after commencing treatment with the analogue. These patients were participating in a randomised controlled trial and had already undergone a baseline measurement of corrected wedged hepatic venous pressure (WHVP) prior to being commenced on octreotide (50 tg.sc.bd). […] One patient had severe (Child's C), 2 moderate (Child's B) and 3 mild (Child's A) liver dys- function. Following an overnight fast, blood samples were removed immediately prior to a subcutaneous injection of 50tg octreotide and then at 2 hourly intervals for the following 12 h. The blood samples were collected in hepari- nised bottles containing Trasylol, centrifuged at 0C, the plasma snap frozen and stored at -20C for subsequent analysis of the octreo- tide levels. […] Thirteen patient with cirrhosis and portal hy- pertension admitted for a thorough investigation of the etiology and severity of their liver disease underwent measurements of their corrected wedged hepatic venous pressure (WHVP). […]"}, "[4]": {"details": "Patient 1, Child's grade A, 50 μg s.c."}, "[5]": {"details": "Patient 2, Child's grade A, 50 μg s.c."}, "[6]": {"details": "Patient 3, Child's grade A, 50 μg s.c."}, "[7]": {"details": "Patient 4, Child's grade B, 50 μg s.c."}, "[8]": {"details": "Patient 5, Child's grade B, 50 μg s.c."}, "[9]": {"details": "Patient 6, Child's grade C, 50 μg s.c."}}}
{"smiles": "C[C@@H](O)[C@@H]1NC(=O)[C@H](CCCCN)NC(=O)[C@@H](Cc2c[nH]c3ccccc23)NC(=O)[C@H](Cc2ccccc2)NC(=O)[C@@H](NC(=O)[C@H](N)Cc2ccccc2)CSSC[C@@H](C(=O)N[C@H](CO)[C@@H](C)O)NC1=O", "note": "[octreotide]", "values": [{"measurement": "hepatic excretion", "setting": "[1]", "result": "30-40%"}, {"measurement": "clearance, overall", "setting": "[2]; 50 μg s.c., six patients, mean ± SD", "result": 3.04, "unit": "L/h"}, {"measurement": "Clearance", "setting": "[2]; [4]", "result": 4.775, "unit": "L/h"}, {"measurement": "K", "setting": "[2]; [4]", "result": 0.271, "unit": "h⁻¹"}, {"measurement": "Volume of distribution", "setting": "[2]; [4]", "result": 17.62, "unit": "L"}, {"measurement": "Clearance", "setting": "[2]; [5]", "result": 2.892, "unit": "L/h"}, {"measurement": "K", "setting": "[2]; [5]", "result": 0.251, "unit": "h⁻¹"}, {"measurement": "Volume of distribution", "setting": "[2]; [5]", "result": 11.51, "unit": "L"}, {"measurement": "Clearance", "setting": "[2]; [6]", "result": 3.021, "unit": "L/h"}, {"measurement": "K", "setting": "[2]; [6]", "result": 0.288, "unit": "h⁻¹"}, {"measurement": "Volume of distribution", "setting": "[2]; [6]", "result": 10.47, "unit": "L"}, {"measurement": "Clearance", "setting": "[2]; [7]", "result": 2.765, "unit": "L/h"}, {"measurement": "K", "setting": "[2]; [7]", "result": 0.172, "unit": "h⁻¹"}, {"measurement": "Volume of distribution", "setting": "[2]; [7]", "result": 16.07, "unit": "L"}, {"measurement": "Clearance", "setting": "[2]; [8]", "result": 2.704, "unit": "L/h"}, {"measurement": "K", "setting": "[2]; [8]", "result": 0.172, "unit": "h⁻¹"}, {"measurement": "Volume of distribution", "setting": "[2]; [8]", "result": 15.77, "unit": "L"}, {"measurement": "Clearance", "setting": "[2]; [9]", "result": 2.101, "unit": "L/h"}, {"measurement": "K", "setting": "[2]; [9]", "result": 0.142, "unit": "h⁻¹"}, {"measurement": "Volume of distribution", "setting": "[2]; [9]", "result": 14.82, "unit": "L"}, {"measurement": "Tmax", "setting": "[2]; both, human, plasma, sc, 50 ug", "result": 2, "unit": "h"}, {"measurement": "half-life", "setting": "[2]; both, human, plasma, sc, 50 ug, circulating (plasma) half life, range, 50 μg octreotide s.c., range over 6 patients with cirrhosis and portal hypertension", "result": "2.4 to 4.79", "unit": "h"}, {"measurement": "half-life", "setting": "[2]; both, human, plasma, sc, 50 ug, plasma half-life, overall, 50 μg s.c., six patients, mean ± SD", "result": 3.44, "unit": "h"}, {"measurement": "AUC", "setting": "[2]; human, plasma, sc, 50 ug, Patient 1, Child's grade A, 50 μg s.c.", "result": 10.5, "unit": "ng·h/mL"}, {"measurement": "AUC", "setting": "[2]; human, plasma, sc, 50 ug, Patient 2, Child's grade A, 50 μg s.c.", "result": 17.2, "unit": "ng·h/mL"}, {"measurement": "AUC", "setting": "[2]; human, plasma, sc, 50 ug, Patient 3, Child's grade A, 50 μg s.c.", "result": 16.6, "unit": "ng·h/mL"}, {"measurement": "AUC", "setting": "[2]; human, plasma, sc, 50 ug, Patient 4, Child's grade B, 50 μg s.c.", "result": 18.1, "unit": "ng·h/mL"}, {"measurement": "AUC", "setting": "[2]; human, plasma, sc, 50 ug, Patient 5, Child's grade B, 50 μg s.c.", "result": 18.5, "unit": "ng·h/mL"}, {"measurement": "AUC", "setting": "[2]; human, plasma, sc, 50 ug, Patient 6, Child's grade C, 50 μg s.c.", "result": 23.8, "unit": "ng·h/mL"}, {"measurement": "Cmax", "setting": "[2]; human, plasma, sc, Patient 1, Child's grade A, 50 μg s.c.", "result": 2.59, "unit": "ng/mL"}, {"measurement": "Cmax", "setting": "[2]; human, plasma, sc, Patient 2, Child's grade A, 50 μg s.c.", "result": 2.2, "unit": "ng/mL"}, {"measurement": "Cmax", "setting": "[2]; human, plasma, sc, Patient 3, Child's grade A, 50 μg s.c.", "result": 2.09, "unit": "ng/mL"}, {"measurement": "Cmax", "setting": "[2]; human, plasma, sc, Patient 4, Child's grade B, 50 μg s.c.", "result": 2.94, "unit": "ng/mL"}, {"measurement": "Cmax", "setting": "[2]; human, plasma, sc, Patient 5, Child's grade B, 50 μg s.c.", "result": 3.28, "unit": "ng/mL"}, {"measurement": "Cmax", "setting": "[2]; human, plasma, sc, Patient 6, Child's grade C, 50 μg s.c.", "result": 3.51, "unit": "ng/mL"}, {"measurement": "half-life", "setting": "[2]; human, plasma, sc, 50 ug, t1/2, Patient 1, Child's grade A, 50 μg s.c.", "result": 2.4, "unit": "h"}, {"measurement": "half-life", "setting": "[2]; human, plasma, sc, 50 ug, t1/2, Patient 2, Child's grade A, 50 μg s.c.", "result": 2.76, "unit": "h"}, {"measurement": "half-life", "setting": "[2]; human, plasma, sc, 50 ug, t1/2, Patient 3, Child's grade A, 50 μg s.c.", "result": 2.56, "unit": "h"}, {"measurement": "half-life", "setting": "[2]; human, plasma, sc, 50 ug, t1/2, Patient 4, Child's grade B, 50 μg s.c.", "result": 4.03, "unit": "h"}, {"measurement": "half-life", "setting": "[2]; human, plasma, sc, 50 ug, t1/2, Patient 5, Child's grade B, 50 μg s.c.", "result": 4.04, "unit": "h"}, {"measurement": "half-life", "setting": "[2]; human, plasma, sc, 50 ug, t1/2, Patient 6, Child's grade C, 50 μg s.c.", "result": 4.89, "unit": "h"}, {"measurement": "plasma octreotide level 1 h after administration", "setting": "[3]", "result": 1944, "unit": "pg/mL"}, {"measurement": "level at 1 h", "setting": "[3]; human, plasma, 50 ug", "result": "1.94 ± 0.226", "unit": "ng/mL"}]}
